Assay results: ChEMBL document CHEMBL3991601, “The target landscape of clinical kinase drugs” (Science, 2017)
Structures can show the parent of a compound that is named as a salt. The source made the active and inactive calls. Rule as the data show it, for most assays here: actives have a measured Kd and inactives only a lower limit.

Assays:
[1] = biological target: Bone morphogenetic protein receptor type-1A (Homo sapiens, UniProt P36894)
[2] = biological target: T1, Mitogen-activated protein kinase kinase kinase kinase 2 (Homo sapiens, UniProt Q12851)
T1 sequence (Q12851 whole entry): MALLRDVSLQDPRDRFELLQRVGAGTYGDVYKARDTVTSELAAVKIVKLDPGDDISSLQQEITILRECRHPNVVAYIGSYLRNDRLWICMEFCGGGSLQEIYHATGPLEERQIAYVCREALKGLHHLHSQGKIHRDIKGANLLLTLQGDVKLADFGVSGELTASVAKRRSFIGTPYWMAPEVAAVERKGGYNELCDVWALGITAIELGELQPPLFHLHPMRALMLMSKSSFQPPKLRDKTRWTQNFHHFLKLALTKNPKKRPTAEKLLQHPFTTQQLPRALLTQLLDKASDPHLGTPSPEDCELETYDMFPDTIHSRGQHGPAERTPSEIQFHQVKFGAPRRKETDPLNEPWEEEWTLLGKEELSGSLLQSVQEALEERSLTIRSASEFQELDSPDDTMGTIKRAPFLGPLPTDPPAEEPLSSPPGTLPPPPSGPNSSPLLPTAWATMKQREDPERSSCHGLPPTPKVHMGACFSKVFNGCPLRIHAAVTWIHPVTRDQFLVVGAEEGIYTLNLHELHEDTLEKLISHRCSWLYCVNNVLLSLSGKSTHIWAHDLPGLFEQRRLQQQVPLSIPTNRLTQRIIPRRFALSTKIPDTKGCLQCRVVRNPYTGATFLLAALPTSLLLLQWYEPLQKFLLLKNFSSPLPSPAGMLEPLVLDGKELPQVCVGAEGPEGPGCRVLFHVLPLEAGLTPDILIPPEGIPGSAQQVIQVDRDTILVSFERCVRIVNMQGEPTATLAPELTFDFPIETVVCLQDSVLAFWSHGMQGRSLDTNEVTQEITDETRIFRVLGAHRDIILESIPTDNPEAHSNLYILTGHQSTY

[3] = biological target: Membrane-associated progesterone receptor component 1 (Homo sapiens, UniProt O00264)
[4] = biological target: RAC-alpha serine/threonine-protein kinase (Homo sapiens, UniProt P31749)
[5] = biological target: T2, ATP-dependent RNA helicase DDX1 (Homo sapiens, UniProt Q92499)
T2 sequence (Q92499 whole entry): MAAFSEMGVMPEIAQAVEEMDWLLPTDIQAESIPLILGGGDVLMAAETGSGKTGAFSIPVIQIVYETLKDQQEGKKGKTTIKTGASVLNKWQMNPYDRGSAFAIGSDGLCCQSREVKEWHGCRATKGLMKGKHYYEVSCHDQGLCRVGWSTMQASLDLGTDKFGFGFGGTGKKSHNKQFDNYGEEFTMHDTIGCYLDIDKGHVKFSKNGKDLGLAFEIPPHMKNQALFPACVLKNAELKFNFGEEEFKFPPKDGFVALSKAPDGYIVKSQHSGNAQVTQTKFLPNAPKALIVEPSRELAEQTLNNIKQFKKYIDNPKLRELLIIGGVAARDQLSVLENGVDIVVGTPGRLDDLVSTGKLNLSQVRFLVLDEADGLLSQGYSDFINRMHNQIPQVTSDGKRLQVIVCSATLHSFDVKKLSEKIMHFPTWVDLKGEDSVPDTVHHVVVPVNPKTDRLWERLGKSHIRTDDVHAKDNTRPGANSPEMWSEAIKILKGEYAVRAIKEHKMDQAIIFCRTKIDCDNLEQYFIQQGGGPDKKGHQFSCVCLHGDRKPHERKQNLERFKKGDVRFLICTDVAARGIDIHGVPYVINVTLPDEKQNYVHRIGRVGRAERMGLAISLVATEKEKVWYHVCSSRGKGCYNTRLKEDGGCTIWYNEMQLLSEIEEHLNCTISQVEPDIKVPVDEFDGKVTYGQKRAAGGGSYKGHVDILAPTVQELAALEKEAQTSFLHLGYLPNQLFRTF

[6] = biological target: Cyclin-dependent kinase 13 (Homo sapiens, UniProt Q14004)
[7] = biological target: Tyrosine-protein kinase Lck (Homo sapiens, UniProt P06239)
[8] = biological target: MAP kinase-activated protein kinase 2 (Homo sapiens, UniProt P49137)
[9] = biological target: Cyclin-dependent kinase 6 (Homo sapiens, UniProt Q00534)
[10] = biological target: T3, Interleukin-1 receptor-associated kinase 3 (Homo sapiens, UniProt Q9Y616)
T3 sequence (Q9Y616 whole entry): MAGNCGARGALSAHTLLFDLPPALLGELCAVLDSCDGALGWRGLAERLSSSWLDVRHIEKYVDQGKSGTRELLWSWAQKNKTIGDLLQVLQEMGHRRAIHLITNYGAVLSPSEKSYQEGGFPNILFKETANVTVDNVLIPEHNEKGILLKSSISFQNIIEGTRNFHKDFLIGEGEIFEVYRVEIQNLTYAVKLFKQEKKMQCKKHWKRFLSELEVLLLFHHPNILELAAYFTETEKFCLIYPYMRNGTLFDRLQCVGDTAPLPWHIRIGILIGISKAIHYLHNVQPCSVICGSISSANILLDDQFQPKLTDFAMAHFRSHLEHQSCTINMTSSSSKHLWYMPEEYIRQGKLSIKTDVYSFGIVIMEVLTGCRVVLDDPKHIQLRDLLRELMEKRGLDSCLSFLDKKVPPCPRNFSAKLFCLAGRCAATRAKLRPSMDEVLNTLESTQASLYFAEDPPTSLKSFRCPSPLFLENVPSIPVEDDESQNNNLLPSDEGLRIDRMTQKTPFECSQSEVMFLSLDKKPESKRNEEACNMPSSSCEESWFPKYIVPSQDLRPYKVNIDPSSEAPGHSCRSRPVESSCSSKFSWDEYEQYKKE

[11] = biological target: Hepatocyte growth factor receptor (Homo sapiens, UniProt P08581)
Also: in the data inactive means no Kd found up to 30 µM.

Chain of Tyrosine-protein kinase Lck (P06239 whole entry): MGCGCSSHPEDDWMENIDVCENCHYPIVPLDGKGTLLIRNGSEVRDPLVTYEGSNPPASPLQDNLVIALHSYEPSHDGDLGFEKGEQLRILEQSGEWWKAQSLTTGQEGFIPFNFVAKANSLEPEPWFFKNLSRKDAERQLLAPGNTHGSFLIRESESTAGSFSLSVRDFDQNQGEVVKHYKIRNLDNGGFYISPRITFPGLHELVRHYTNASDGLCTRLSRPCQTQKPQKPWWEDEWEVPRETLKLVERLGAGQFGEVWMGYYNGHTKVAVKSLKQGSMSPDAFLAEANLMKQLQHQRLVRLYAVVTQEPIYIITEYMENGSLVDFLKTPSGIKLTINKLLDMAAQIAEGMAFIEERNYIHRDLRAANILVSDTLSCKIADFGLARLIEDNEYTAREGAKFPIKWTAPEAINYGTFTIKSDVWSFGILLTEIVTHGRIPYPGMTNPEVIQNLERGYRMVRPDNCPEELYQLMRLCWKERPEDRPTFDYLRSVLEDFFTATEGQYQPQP
Chain of MAP kinase-activated protein kinase 2 (P49137 whole entry): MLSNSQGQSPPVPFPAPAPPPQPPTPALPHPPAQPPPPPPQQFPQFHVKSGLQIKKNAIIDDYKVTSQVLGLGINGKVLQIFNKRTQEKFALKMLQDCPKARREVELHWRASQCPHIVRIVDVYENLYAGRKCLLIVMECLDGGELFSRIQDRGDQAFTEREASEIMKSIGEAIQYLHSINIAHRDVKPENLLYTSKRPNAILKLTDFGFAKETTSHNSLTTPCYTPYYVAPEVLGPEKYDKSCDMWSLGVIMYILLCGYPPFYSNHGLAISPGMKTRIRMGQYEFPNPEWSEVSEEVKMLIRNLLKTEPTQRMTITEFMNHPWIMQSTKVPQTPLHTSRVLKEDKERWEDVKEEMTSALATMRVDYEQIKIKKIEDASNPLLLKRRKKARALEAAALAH
Chain of RAC-alpha serine/threonine-protein kinase (P31749 whole entry): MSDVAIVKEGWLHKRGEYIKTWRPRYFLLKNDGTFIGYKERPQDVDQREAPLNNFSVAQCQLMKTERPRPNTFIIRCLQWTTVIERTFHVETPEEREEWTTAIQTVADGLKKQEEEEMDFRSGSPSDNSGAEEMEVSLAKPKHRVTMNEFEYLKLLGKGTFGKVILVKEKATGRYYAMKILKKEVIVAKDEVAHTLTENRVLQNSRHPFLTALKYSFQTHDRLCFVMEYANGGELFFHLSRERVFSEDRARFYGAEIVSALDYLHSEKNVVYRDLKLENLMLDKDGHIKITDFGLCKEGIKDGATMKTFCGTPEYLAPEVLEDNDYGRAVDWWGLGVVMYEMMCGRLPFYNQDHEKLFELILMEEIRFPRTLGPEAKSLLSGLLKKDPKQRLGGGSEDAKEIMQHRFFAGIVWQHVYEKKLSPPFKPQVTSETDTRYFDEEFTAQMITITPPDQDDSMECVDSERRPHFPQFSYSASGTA
Chain of Hepatocyte growth factor receptor (P08581 whole entry): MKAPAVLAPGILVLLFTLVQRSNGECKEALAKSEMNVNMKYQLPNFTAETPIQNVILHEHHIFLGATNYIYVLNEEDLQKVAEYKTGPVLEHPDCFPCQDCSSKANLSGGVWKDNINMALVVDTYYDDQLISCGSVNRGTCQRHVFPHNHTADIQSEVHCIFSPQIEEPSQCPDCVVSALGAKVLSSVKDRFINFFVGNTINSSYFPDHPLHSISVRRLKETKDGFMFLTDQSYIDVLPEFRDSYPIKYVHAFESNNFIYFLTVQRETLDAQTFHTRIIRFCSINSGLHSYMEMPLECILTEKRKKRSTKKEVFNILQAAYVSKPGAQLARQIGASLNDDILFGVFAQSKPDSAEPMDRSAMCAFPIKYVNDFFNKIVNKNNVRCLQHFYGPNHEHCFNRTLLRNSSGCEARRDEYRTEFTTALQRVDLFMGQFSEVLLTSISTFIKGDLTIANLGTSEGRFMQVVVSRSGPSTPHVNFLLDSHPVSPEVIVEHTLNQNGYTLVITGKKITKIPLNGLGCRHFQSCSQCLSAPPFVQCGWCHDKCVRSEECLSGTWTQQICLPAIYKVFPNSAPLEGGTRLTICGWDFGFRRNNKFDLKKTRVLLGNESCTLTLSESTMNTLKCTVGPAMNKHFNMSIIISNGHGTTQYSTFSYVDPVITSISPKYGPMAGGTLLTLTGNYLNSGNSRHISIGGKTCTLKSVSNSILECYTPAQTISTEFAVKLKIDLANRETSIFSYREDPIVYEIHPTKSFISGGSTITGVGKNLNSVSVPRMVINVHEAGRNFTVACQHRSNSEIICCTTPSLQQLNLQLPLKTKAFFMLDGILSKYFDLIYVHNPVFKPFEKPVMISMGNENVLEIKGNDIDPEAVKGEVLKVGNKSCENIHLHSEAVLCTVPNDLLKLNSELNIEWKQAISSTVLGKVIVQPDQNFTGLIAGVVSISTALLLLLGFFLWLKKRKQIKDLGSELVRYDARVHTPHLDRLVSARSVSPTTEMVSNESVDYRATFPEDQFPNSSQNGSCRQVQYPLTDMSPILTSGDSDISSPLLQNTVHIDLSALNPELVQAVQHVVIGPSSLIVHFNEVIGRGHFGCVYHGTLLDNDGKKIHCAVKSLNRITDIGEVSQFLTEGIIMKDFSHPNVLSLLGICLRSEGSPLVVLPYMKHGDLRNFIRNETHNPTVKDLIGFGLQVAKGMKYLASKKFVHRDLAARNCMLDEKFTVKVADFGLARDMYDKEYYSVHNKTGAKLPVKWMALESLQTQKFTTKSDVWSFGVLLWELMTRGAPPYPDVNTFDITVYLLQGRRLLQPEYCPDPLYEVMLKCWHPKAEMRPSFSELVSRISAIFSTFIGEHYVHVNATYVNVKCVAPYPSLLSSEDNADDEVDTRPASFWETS
Chain of Cyclin-dependent kinase 6 (Q00534 whole entry): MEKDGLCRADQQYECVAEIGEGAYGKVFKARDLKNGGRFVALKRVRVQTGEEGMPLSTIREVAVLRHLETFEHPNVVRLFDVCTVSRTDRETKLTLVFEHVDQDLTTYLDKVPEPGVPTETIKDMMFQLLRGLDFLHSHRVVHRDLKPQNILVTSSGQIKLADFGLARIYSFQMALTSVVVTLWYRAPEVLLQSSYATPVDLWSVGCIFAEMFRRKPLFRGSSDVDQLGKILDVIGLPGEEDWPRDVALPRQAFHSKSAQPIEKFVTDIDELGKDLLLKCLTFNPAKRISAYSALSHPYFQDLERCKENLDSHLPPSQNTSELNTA
Chain of Cyclin-dependent kinase 13 (Q14004 whole entry): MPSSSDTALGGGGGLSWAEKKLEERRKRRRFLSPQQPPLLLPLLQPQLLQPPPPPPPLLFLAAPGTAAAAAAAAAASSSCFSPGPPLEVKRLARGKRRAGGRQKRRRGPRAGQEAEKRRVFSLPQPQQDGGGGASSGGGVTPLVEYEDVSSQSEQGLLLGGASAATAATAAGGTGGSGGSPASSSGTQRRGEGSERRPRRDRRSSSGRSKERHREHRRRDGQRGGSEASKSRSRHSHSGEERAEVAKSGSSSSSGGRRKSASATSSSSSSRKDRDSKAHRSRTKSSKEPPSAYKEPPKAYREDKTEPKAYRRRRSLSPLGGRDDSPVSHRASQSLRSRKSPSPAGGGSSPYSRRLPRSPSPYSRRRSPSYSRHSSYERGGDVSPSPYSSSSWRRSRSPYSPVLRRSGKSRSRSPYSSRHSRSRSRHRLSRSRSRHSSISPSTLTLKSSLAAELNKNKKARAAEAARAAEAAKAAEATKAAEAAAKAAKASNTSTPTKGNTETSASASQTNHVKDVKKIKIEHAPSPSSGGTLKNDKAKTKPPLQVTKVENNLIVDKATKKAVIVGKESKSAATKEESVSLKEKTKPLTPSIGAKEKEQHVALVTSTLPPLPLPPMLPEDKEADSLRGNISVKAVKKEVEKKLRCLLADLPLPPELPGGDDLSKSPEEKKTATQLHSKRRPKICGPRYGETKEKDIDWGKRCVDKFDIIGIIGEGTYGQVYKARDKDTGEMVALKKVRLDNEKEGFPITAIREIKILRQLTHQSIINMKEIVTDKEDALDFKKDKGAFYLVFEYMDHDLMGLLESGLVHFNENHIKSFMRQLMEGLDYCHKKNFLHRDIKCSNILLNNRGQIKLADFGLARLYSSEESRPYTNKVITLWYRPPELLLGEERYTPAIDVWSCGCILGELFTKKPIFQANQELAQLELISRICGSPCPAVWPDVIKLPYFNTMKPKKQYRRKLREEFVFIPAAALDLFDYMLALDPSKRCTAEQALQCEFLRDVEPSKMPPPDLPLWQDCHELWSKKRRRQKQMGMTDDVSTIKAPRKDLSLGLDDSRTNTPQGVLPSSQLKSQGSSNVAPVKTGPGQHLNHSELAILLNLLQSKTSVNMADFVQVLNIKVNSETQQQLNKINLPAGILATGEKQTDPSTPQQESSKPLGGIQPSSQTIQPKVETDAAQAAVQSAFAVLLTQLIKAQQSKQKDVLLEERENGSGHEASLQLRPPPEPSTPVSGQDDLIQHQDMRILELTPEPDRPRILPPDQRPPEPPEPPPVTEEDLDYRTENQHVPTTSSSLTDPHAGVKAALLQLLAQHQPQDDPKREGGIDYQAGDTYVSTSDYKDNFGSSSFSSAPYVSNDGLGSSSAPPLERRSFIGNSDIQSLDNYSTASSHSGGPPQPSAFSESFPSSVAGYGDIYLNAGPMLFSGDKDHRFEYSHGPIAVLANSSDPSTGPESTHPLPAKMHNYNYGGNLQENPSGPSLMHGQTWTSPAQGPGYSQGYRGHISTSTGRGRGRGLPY
Chain of Membrane-associated progesterone receptor component 1 (O00264 whole entry): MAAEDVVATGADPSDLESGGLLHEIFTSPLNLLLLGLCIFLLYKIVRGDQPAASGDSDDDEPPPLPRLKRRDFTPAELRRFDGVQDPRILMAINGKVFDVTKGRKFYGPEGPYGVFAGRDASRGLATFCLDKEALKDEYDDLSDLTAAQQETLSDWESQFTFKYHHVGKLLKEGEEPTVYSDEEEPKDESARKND

SMILES | Kd [1] | Kd [2] | Kd [3] | Kd [4] | Kd [5] | Kd [6] | Kd [7] | Kd [8] | Kd [9] | Kd [10] | Kd [11]
C[C@H]1CNCCCN1S(=O)(=O)c1cccc2cncc(F)c12 | > 30 µM (inactive) | > 30 µM (inactive) | > 30 µM (inactive) | > 30 µM (inactive) | > 30 µM (inactive) | > 30 µM (inactive) | > 30 µM (inactive) | > 30 µM (inactive) | > 30 µM (inactive) | > 30 µM (inactive) | > 30 µM (inactive)
C=CC(=O)N1CCC[C@H](n2c(=O)n(-c3ccc(Oc4ccccc4)cc3)c3c(N)ncnc32)C1 | > 30 µM (inactive) | > 30 µM (inactive) | > 30 µM (inactive) | > 30 µM (inactive) | > 30 µM (inactive) | > 30 µM (inactive) | 0.005 µM | > 30 µM (inactive) | > 30 µM (inactive) | > 30 µM (inactive) | > 30 µM (inactive)
Cc1nc2cc(-c3nn(C(C)C)c4ncnc(N)c34)ccc2o1 | 1.28 µM (active) | 15.9 µM (active) | > 30 µM (inactive) | > 30 µM (inactive) | > 30 µM (inactive) | > 30 µM (inactive) | > 30 µM (inactive) | > 30 µM (inactive) | > 30 µM (inactive) | > 30 µM (inactive) | > 30 µM (inactive)
Nc1ncnc2c1c(-c1cccc(OCc3ccccc3)c1)cn2[C@H]1C[C@@H](CN2CCC2)C1 [AEW-541] | > 30 µM (inactive) | 4.58 µM (active) | > 30 µM (inactive) | > 30 µM (inactive) | > 30 µM (inactive) | > 30 µM (inactive) | > 30 µM (inactive) | > 30 µM (inactive) | > 30 µM (inactive) | > 30 µM (inactive) | > 30 µM (inactive)
Cc1nc(NC(=O)N2CCC[C@H]2C(N)=O)sc1-c1ccnc(C(C)(C)C(F)(F)F)c1 [ALPELISIB] | > 30 µM (inactive) | > 30 µM (inactive) | > 30 µM (inactive) | > 30 µM (inactive) | > 30 µM (inactive) | > 30 µM (inactive) | > 30 µM (inactive) | > 30 µM (inactive) | > 30 µM (inactive) | > 30 µM (inactive) | > 30 µM (inactive)
Cc1csc(-c2nnc(Nc3ccc(Oc4ncccc4-c4ccnc(N)n4)cc3)c3ccccc23)c1 [AMG-900] | > 30 µM (inactive) | 0.186 µM (active) | > 30 µM (inactive) | > 30 µM (inactive) | > 30 µM (inactive) | 2.51 µM | > 30 µM (inactive) | 2.69 µM (active) | > 30 µM (inactive) | > 30 µM (inactive) | > 30 µM (inactive)
C=CC(=O)Nc1cc2c(Nc3ccc(F)c(Cl)c3)ncnc2cc1C#CC(C)(C)N1CCN(C)CC1 [AV-412 FREE BASE] | > 30 µM (inactive) | > 30 µM (inactive) | > 30 µM (inactive) | > 30 µM (inactive) | > 30 µM (inactive) | > 30 µM (inactive) | > 30 µM (inactive) | > 30 µM (inactive) | > 30 µM (inactive) | > 30 µM (inactive) | > 30 µM (inactive)
NC(=O)Nc1cc(-c2cccc(F)c2)sc1C(=O)N[C@H]1CCCNC1 [AZD-7762] | > 30 µM (inactive) | 0.05 µM (active) | > 30 µM (inactive) | > 30 µM (inactive) | > 30 µM (inactive) | > 30 µM (inactive) | 1.29 µM (active) | > 30 µM (inactive) | > 30 µM (inactive) | > 30 µM (inactive) | > 30 µM (inactive)
Cn1cnc2c(F)c(Nc3ccc(Br)cc3F)c(C(=O)NOCCO)cc21 [BINIMETINIB] | > 30 µM (inactive) | > 30 µM (inactive) | > 30 µM (inactive) | > 30 µM (inactive) | > 30 µM (inactive) | > 30 µM (inactive) | > 30 µM (inactive) | > 30 µM (inactive) | > 30 µM (inactive) | > 30 µM (inactive) | > 30 µM (inactive)
CCn1c(C(=O)N(C2CC2)C2CC2)cc2c3c(ncn3C)c(Nc3cc(C)n(C)n3)nc21 [BMS-911543] | > 30 µM (inactive) | > 30 µM (inactive) | > 30 µM (inactive) | > 30 µM (inactive) | > 30 µM (inactive) | > 30 µM (inactive) | > 30 µM (inactive) | > 30 µM (inactive) | > 30 µM (inactive) | > 30 µM (inactive) | > 30 µM (inactive)
COCC(=O)NC/C=C/c1ccc2ncnc(Nc3ccc(Oc4ccc(C)nc4)c(C)c3)c2c1 [CP-724714] | > 30 µM (inactive) | > 30 µM (inactive) | > 30 µM (inactive) | > 30 µM (inactive) | > 30 µM (inactive) | > 30 µM (inactive) | > 30 µM (inactive) | > 30 µM (inactive) | > 30 µM (inactive) | > 30 µM (inactive) | > 30 µM (inactive)
C#Cc1cccc(Nc2ncnc3cc(OC)c(OCCCCCCC(=O)NO)cc23)c1 [CUDC-101] | > 30 µM (inactive) | > 30 µM (inactive) | > 30 µM (inactive) | > 30 µM (inactive) | > 30 µM (inactive) | > 30 µM (inactive) | > 30 µM (inactive) | > 30 µM (inactive) | > 30 µM (inactive) | > 30 µM (inactive) | > 30 µM (inactive)
CCS(=O)(=O)N1CCN(c2ccc(Nc3ncc(C(N)=O)c(NC4CC4)n3)cc2)CC1 [Cerdulatinib Hydrochloride] | > 30 µM (inactive) | > 30 µM (inactive) | > 30 µM (inactive) | > 30 µM (inactive) | > 30 µM (inactive) | > 30 µM (inactive) | > 30 µM (inactive) | > 30 µM (inactive) | > 30 µM (inactive) | > 30 µM (inactive) | > 30 µM (inactive)
Cc1nc2cc(-n3ncc(C(=O)c4cc5ccccc5[nH]4)c3N)ccc2[nH]1 [FGFR INHIBITOR DEBIO 1347] | > 30 µM (inactive) | > 30 µM (inactive) | > 30 µM (inactive) | > 30 µM (inactive) | > 30 µM (inactive) | > 30 µM (inactive) | > 30 µM (inactive) | 0.018 µM | > 30 µM (inactive) | > 30 µM (inactive) | > 30 µM (inactive)
